Laboratory results from patent US20100197650A1, “COMPOSITIONS AND METHODS OF TREATMENT COMPRISING CEFTAROLINE” (FOREST LABORATORIES HOLDINGS LTD., priority 2008, published 2010).
Converted amounts (≈) assume the structure as drawn. Read-outs that look alike come from different tables or passages of the source. Marks after values point to notes of the source that are not given here.

Tests used:
P. aeruginosa = assay: Susceptibility testing MIC/MBC, broth microdilution (Example 2); type: cell-based, Pseudomonas aeruginosa; conditions: for MBC / MIC: Pseudomonas aeruginosa; for MBC: read-out: MBC; for MIC: read-out: MIC
[1] = tested on: ESBL-producing Klebsiella pneumoniae; assay: as above; type: cell-based; conditions: for MBC / MIC: Klebsiella pneumoniae; for MBC: read-out: MBC; for MIC: read-out: MIC
ESBL-producing E. coli = assay: as above; type: cell-based, Escherichia coli; conditions: for MBC range / MIC range: E. coli (10) clinical isolates; for MBC / MIC: Escherichia coli; for MBC: read-out: MBC; for MIC: read-out: MIC
[2] = tested on: AmpC-derepressed Enterobacter cloacae; assay: microbe, parasite or virus in culture; type: cell-based; conditions: for MBC range / MIC range: E. cloacae (10) clinical isolates; for MBC / MIC: Enterobacter cloacae
Pseudomonas aeruginosa = assay: MIC, broth microdilution (Example 1); type: cell-based
Method: (§1) Stock solutions of all antibacterial agents were prepared at 80-fold (80×) the final target concentration in the appropriate solvent and the solution was allowed to stand for 60 minutes. All antibacterial agents were in solution under these conditions. The final drug concentrations in the FIC assay plates were set to bracket the MIC value of each agent for each test organism, unless the strain was totally resistant to the test agent.
(§2) The test organisms were originally received from clinical sources, or from the American Type Culture Collection. Upon receipt, the isolates were streaked onto the appropriate growth medium: Chocolate Agar for H. influenzae, Tryptic Soy Agar II (Becton Dickinson, Sparks, Md.) supplemented with 5% defibrinated sheep blood for streptococci, and unsupplemented Tryptic Soy Agar II for all other organisms. Colonies were harvested from these plates and a cell suspension was prepared in Tryptic Soy Broth (Becton Dickinson) containing cryoprotectant. Aliquots were then frozen at −80° C. On the day prior to assay, the frozen seeds of the organisms to be tested in that session were thawed and streaked for isolation onto the appropriate agar medium plates and incubated overnight at 35° C.
(§3) The test medium for H. influenzae was Haemophilus Test Medium. Streptococci were tested in Mueller Hinton II Broth (Becton Dickinson; Lot 6235472) supplemented with 2% lysed horse blood (Cleveland Scientific, Bath, Ohio; Lot H88621). All other organisms were tested in Mueller Hinton II Broth (Becton Dickinson, Lot 6235472). The broth was prepared at 1.05× normal weight/volume to offset the 5% volume of the drugs in the final test plates.
(§4) In order to select the proper test concentrations for each drug combination, minimal inhibitory concentration (MIC) values were first determined using the broth microdilution method previously described (Clinical and Laboratory Standards Institute. Methods for Dilution Antimicrobial Susceptibility Tests for Bacteria That Grow Aerobically; Approved Standard—Seventh Edition. Clinical and Laboratory Standards Institute document M7-A7 [ISBN 1-56238-587-9]. Clinical and Laboratory Standards Institute, 940 West Valley Road, Suite 1400, Wayne, Pa. 19087-1898 USA, 2006).
(§5) The wells of standard 96-well microdilution plates (Falcon 3918) were filled with 150 μL of 100% DMSO using the Multidrop 384. These plates were used to prepare the drug “mother plates” which provided the serial drug dilutions for the drug combination plates. The Biomek 2000 was used to transfer 150 μl of each stock solution (80×) from the wells in Column 1 of a deep well plate to the corresponding wells in Column 1 of the mother plate and to make seven 2-fold serial dilutions. Two mother plates, one for each drug, were combined to form a “checkerboard” pattern by transfer of equal volumes (using a multi-channel pipette) to the drug combination plate. Row H and Column 8 each contained serial dilutions of one of the agents alone for determination of the MIC.
(§6) Plates were stacked 3 high, covered with a lid on the top plate, placed in plastic bags, and incubated at 35° C. for approximately 20 hours. Following incubation, the microplates were removed from the incubator and viewed from the bottom using a ScienceWare plate viewer. Prepared reading sheets were marked for the MIC of drug 1 (row H), the MIC of drug 2 (column 8) and the wells of the growth-no growth interface.

Escherichia coli = assay: MIC, broth microdilution (Example 1); type: cell-based
Method: as §1, §2, §3, §4, §5, §6

Klebsiella pneumoniae = assay: MIC, broth microdilution (Example 1); type: cell-based
Method: as §1, §2, §3, §4, §5, §6

Streptococcus pyogenes = assay: MIC, broth microdilution (Example 1); type: cell-based; conditions: Streptococcus pyogenes, read-out: MIC
Method: as §1, §2, §3, §4, §5, §6

Streptococcus pneumoniae = assay: MIC, broth microdilution (Example 1); type: cell-based
Method: as §1, §2, §3, §4, §5, §6

Haemophilus influenzae = assay: MIC, broth microdilution (Example 1); type: cell-based; conditions: Haemophilus influenzae, read-out: MIC
Method: as §1, §2, §3, §4, §5, §6

[3] = P. aeruginosa (20) clinical isolates
[4] = K. pneumonia (10) clinical isolates
[5] = Escherichia coli, E. coli 1587, read-out: MIC
[6] = Escherichia coli, E. coli 2273 (ESBL), read-out: MIC
[7] = Klebsiella pneumoniae, K. pneumoniae 1340, read-out: MIC
[8] = Klebsiella pneumoniae, K. pneumoniae 1461, read-out: MIC

NCC[C@H](O)C(=O)N[C@@H]1C[C@H](N)[C@@H](O[C@H]2O[C@H](CN)[C@@H](O)[C@H](O)[C@H]2O)[C@H](O)[C@H]1O[C@H]1O[C@H](CO)[C@@H](O)[C@H](N)[C@H]1O [Amikacin]
MBC range (P. aeruginosa; [3]): 2 to 64 µg/mL | MIC range (P. aeruginosa; [3]): 2 to 16 µg/mL | MBC (P. aeruginosa; P. aeruginosa isolate no. 796): 32 µg/mL (≈ 54.6 µM) | MIC (P. aeruginosa; P. aeruginosa isolate no. 796): 16 µg/mL (≈ 27.3 µM) | MBC (P. aeruginosa; P. aeruginosa isolate no. 956): 64 µg/mL (≈ 109 µM) | MIC (P. aeruginosa; P. aeruginosa isolate no. 956): 4 µg/mL (≈ 6.83 µM) | MBC (P. aeruginosa; P. aeruginosa isolate no. 1019): 4 µg/mL (≈ 6.83 µM) | MIC (P. aeruginosa; P. aeruginosa isolate no. 1019): 4 µg/mL (≈ 6.83 µM) | MBC (P. aeruginosa; P. aeruginosa isolate no. 1037): 4 µg/mL (≈ 6.83 µM) | MIC (P. aeruginosa; P. aeruginosa isolate no. 1037): 2 µg/mL (≈ 3.42 µM) | MBC range [1, 4]: 1 to 128 µg/mL | MIC range [1, 4]: 1 to 32 µg/mL | MBC ([1]; K. pneumonia isolate no. 5427): 2 µg/mL (≈ 3.42 µM) | MIC ([1]; K. pneumonia isolate no. 5427): 2 µg/mL (≈ 3.42 µM) | MBC ([1]; K. pneumonia isolate no. 5436): 2 µg/mL (≈ 3.42 µM) | MIC ([1]; K. pneumonia isolate no. 5436): 1 µg/mL (≈ 1.71 µM) | MBC range (ESBL-producing E. coli): 4 to 64 µg/mL | MIC range (ESBL-producing E. coli): 1 to 16 µg/mL | MBC (ESBL-producing E. coli; E. coli isolate no. 5401): 4 µg/mL (≈ 6.83 µM) | MIC (ESBL-producing E. coli; E. coli isolate no. 5401): 2 µg/mL (≈ 3.42 µM) | MBC (ESBL-producing E. coli; E. coli isolate no. 5411): 16 µg/mL (≈ 27.3 µM) | MIC (ESBL-producing E. coli; E. coli isolate no. 5411): 8 µg/mL (≈ 13.7 µM) | MBC range [2]: 1 to 8 µg/mL | MIC range [2]: 0.5 to 4 µg/mL | MBC ([2]; E. cloacae isolate no. 4073): 8 µg/mL (≈ 13.7 µM) | MIC ([2]; E. cloacae isolate no. 4073): 1 µg/mL (≈ 1.71 µM) | MBC ([2]; E. cloacae isolate no. 5420): 2 µg/mL (≈ 3.42 µM) | MIC ([2]; E. cloacae isolate no. 5420): 1 µg/mL (≈ 1.71 µM) | MIC (Pseudomonas aeruginosa; P. aeruginosa 2555): 8 µg/mL | MIC (Pseudomonas aeruginosa; P. aeruginosa 2559): 4 µg/mL | MIC (Escherichia coli; [5]): 4 µg/mL | MIC (Escherichia coli; [6]): 8 µg/mL | MIC (Klebsiella pneumoniae; [7]): 1 µg/mL | MIC (Klebsiella pneumoniae; [8]): 1 µg/mL

C[C@H]1COc2c(N3CCN(C)CC3)c(F)cc3c(=O)c(C(=O)O)cn1c23 [Levofloxacin]
MIC range (P. aeruginosa; [3]): 0.25 to 32 µg/mL | MBC (P. aeruginosa; P. aeruginosa isolate no. 796): 2 µg/mL (≈ 5.53 µM) | MIC (P. aeruginosa; P. aeruginosa isolate no. 796): 1 µg/mL (≈ 2.77 µM) | MBC (P. aeruginosa; P. aeruginosa isolate no. 956): 1 µg/mL (≈ 2.77 µM) | MIC (P. aeruginosa; P. aeruginosa isolate no. 956): 0.5 µg/mL (≈ 1.38 µM) | MBC (P. aeruginosa; P. aeruginosa isolate no. 1019): 1 µg/mL (≈ 2.77 µM) | MIC (P. aeruginosa; P. aeruginosa isolate no. 1019): 0.5 µg/mL (≈ 1.38 µM) | MBC (P. aeruginosa; P. aeruginosa isolate no. 1037): 0.5 µg/mL (≈ 1.38 µM) | MIC (P. aeruginosa; P. aeruginosa isolate no. 1037): 0.25 µg/mL (≈ 0.692 µM) | MBC ([1]; K. pneumonia isolate no. 5427): 2 µg/mL (≈ 5.53 µM) | MIC ([1]; K. pneumonia isolate no. 5427): 0.25 µg/mL (≈ 0.692 µM) | MBC ([1]; K. pneumonia isolate no. 5436): 4 µg/mL (≈ 11.1 µM) | MIC ([1]; K. pneumonia isolate no. 5436): 4 µg/mL (≈ 11.1 µM) | MBC range (ESBL-producing E. coli): 0.06 to 32 µg/mL | MIC range (ESBL-producing E. coli): 0.03 to 32 µg/mL | MBC (ESBL-producing E. coli; E. coli isolate no. 5401): 32 µg/mL (≈ 88.6 µM) | MIC (ESBL-producing E. coli; E. coli isolate no. 5401): 32 µg/mL (≈ 88.6 µM) | MBC (ESBL-producing E. coli; E. coli isolate no. 5411): 16 µg/mL (≈ 44.3 µM) | MIC (ESBL-producing E. coli; E. coli isolate no. 5411): 8 µg/mL (≈ 22.1 µM) | MBC range [2]: 0.03 to 128 µg/mL | MIC range [2]: 0.03 to 64 µg/mL | MBC ([2]; E. cloacae isolate no. 4073): 0.06 µg/mL (≈ 0.166 µM) | MIC ([2]; E. cloacae isolate no. 4073): 0.06 µg/mL (≈ 0.166 µM) | MBC ([2]; E. cloacae isolate no. 5420): 0.06 µg/mL (≈ 0.166 µM) | MIC ([2]; E. cloacae isolate no. 5420): 0.06 µg/mL (≈ 0.166 µM) | MIC (Streptococcus pyogenes; S. pyogenes 0717): 0.5 µg/mL | MIC (Streptococcus pyogenes; S. pyogenes 0722): 0.5 µg/mL | MIC (Escherichia coli; E. coli 2273 (ESBL)): >4^a μg/mL | MIC (Escherichia coli; [5]): 0.06 µg/mL | MIC (Escherichia coli; [6]): > 4 µg/mL | MIC (Klebsiella pneumoniae; K. pneumoniae 1461): >4^a μg/mL | MIC (Klebsiella pneumoniae; [7]): 0.06 µg/mL | MIC (Klebsiella pneumoniae; [8]): > 4 µg/mL | MIC (Streptococcus pneumoniae; S. pneumoniae 0866 (PSSP)): 1 ^ μg/mL | MIC (Streptococcus pneumoniae; S. pneumoniae 0869 (PSSP)): 1 ^ μg/mL | MIC (Streptococcus pneumoniae; S. pneumoniae 0880 (PRSP)): >4^a μg/mL | MIC (Streptococcus pneumoniae; S. pneumoniae 0884 (PRSP)): 1 ^ μg/mL | MIC (Streptococcus pneumoniae; Streptococcus pneumoniae, PRSP, S. pneumoniae 0880 (PRSP), read-out: MIC): > 4 µg/mL | MIC (Streptococcus pneumoniae; Streptococcus pneumoniae, PRSP, S. pneumoniae 0884 (PRSP), read-out: MIC): 1 µg/mL | MIC (Streptococcus pneumoniae; Streptococcus pneumoniae, S. pneumoniae 0866 (PSSP), read-out: MIC): 1 µg/mL | MIC (Streptococcus pneumoniae; Streptococcus pneumoniae, S. pneumoniae 0869 (PSSP), read-out: MIC): 1 µg/mL | MIC (Haemophilus influenzae; H. influenzae 1224): 0.015 µg/mL | MIC (Haemophilus influenzae; H. influenzae 2797 (BLNAR)): 0.015 µg/mL | MIC (Haemophilus influenzae; H. influenzae 2798 (BLNAR)): 0.015 µg/mL | MIC (Haemophilus influenzae; H. influenzae 2799 (BLNAR)): 0.015 µg/mL
